Laboratory results from publication PMC9255384 (Journal of medicinal chemistry, 2021).

Tested on: Caco-2
Assay: Monolayer Caco-2 permeability experiment
Assay type: in vitro ADME

SMILES | cellular permeability (Caco-2)
C=CC(=O)Nc1ccc(OC)c(Nc2cc(-c3[nH]c(SC)nc3-c3cccc(NC(=O)c4c(F)ccc(O)c4CN4C(=O)c5ccccc5C4=O)c3)ccn2)c1 [Compound 1, N-(3-(5-(2-((5-acrylamido-2-methoxyphenyl)amino)pyridin-4-yl)-2-(methylthio)-1H-imidazol-4-yl)phenyl)-2-((1,3-dioxoisoindolin-2-yl)methyl)-6-fluoro-3-hydroxybenzamide] | limited cellular permeability
CSc1nc(-c2cccc(NC(=O)c3c(F)ccc(O)c3CN3C(=O)c4ccccc4C3=O)c2)c(-c2ccnc(NC(C)=O)c2)[nH]1 [Compound 2c, N-(3-(5-(2-acetamidopyridin-4-yl)-2-(methylthio)-1H-imidazol-4-yl)phenyl)-2-((1,3-dioxoisoindolin-2-yl)methyl)-6-fluoro-3-hydroxybenzamide] | limited cellular permeability
